# Reference: patent publication US9334286B2, “Pharmacologically active compounds” (Cancer Research Technology Limited, priority 2012, dated 2016)
# Molecular target: full length MPS1 (Homo sapiens (Human), UniProt P33981)
# Assay: Measurement of inhibition of MPS1 kinase (Caliper EZ reader, fluorescent labelled peptide H236)
# Format: biochemical
# Conditions: full length MPS1 12.5 nM or 3 nM, peptide H236 5 μM, ATP 10 μM, 60 min at room temperature
# Protocol: The reaction was carried out for 60 min at room temperature and stopped by the addition of buffer (10 μl) containing 20 mM EDTA, 0.05% (v/v) Brij-35, in 0.1M HEPES-buffered saline (Free acid, Sigma, UK). The plate was read on a Caliper EZ reader II (Caliper Life Sciences).
# The reader provides a Software package (‘Reviewer’) which converts the peak heights into % conversion by measuring both product and substrate peak and also allows selection of control well which represent 0% and 100% inhibition respectively. The % inhibition of the compounds is calculated relative to the means of selected control wells. IC50s are determined by testing the compounds at a range of concentrations from 0.25 nM-100 μM. The % inhibitions at each concentration are then fitted to a 4 parameter logistic fit: y=(a+((b−a)/(1+((c/x^d)))) where a=asym min, b=asym max, c=IC50 and d=hill coefficient
# full length MPS1, sequence (P33981 whole entry): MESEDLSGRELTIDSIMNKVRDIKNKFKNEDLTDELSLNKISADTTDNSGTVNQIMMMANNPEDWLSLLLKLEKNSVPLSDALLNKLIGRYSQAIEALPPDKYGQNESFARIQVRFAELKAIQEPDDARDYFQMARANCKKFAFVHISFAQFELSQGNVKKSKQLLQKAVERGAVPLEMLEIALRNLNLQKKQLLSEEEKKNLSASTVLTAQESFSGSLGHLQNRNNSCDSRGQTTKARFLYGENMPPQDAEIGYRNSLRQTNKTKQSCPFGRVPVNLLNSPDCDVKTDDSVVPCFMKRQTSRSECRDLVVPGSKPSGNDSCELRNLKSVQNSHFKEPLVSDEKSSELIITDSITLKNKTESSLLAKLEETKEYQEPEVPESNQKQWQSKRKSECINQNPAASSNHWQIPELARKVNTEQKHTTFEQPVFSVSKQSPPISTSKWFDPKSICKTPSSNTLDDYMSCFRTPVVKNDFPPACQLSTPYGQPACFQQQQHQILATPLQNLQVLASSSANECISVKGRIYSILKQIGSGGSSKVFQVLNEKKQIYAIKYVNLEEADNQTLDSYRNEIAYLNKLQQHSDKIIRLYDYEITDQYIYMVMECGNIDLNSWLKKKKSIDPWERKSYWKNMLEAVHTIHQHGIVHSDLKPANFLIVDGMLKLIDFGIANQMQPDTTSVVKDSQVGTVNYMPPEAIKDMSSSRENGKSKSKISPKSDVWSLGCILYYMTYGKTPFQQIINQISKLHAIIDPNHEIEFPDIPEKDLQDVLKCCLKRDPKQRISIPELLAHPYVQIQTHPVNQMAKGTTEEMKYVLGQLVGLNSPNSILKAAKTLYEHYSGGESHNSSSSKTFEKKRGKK
row,IC50 [nM],SMILES
1,4,"COCc1c(-c2ccc(Nc3cc4cc(-c5cnn(CC(C)(C)O)c5)ccc4cn3)c(OC)c2)cnn1C [Example 51, 1-(4-(3-(2-Methoxy-4-(5-(methoxymethyl)-1-methyl-1H-pyrazol-4-yl)phenylamino)isoquinolin-6-yl)-1H-pyrazol-1-yl)-2-methylpropan-2-ol]"
2,4,"COc1cc(-c2cnn(C)c2)ccc1Nc1cc2cc(-c3cnn(CC(C)(C)O)c3)ccc2cn1 [Example 52, 1-(4-(3-(2-Methoxy-4-(1-methyl-1H-pyrazol-4-yl)phenylamino)isoquinolin-6-yl)-1H-pyrazol-1-yl)-2-methylpropan-2-ol]"
3,4,"COc1cc(-c2cnn(C)c2C)ccc1Nc1cc2cc(-c3cnn(CC(C)(C)O)c3)ccc2cn1 [Example 53, 1-(4-(3-(4-(1,5-Dimethyl-1H-pyrazol-4-yl)-2-methoxyphenylamino)isoquinolin-6-yl)-1H-pyrazol-1-yl)-2-methylpropan-2-ol]"
4,65,"COc1cc(F)ccc1Nc1cc2cc(-c3cnn(CC(C)(C)O)c3)ccc2cn1 [Example 54, 1-(4-(3-(4-Fluoro-2-methoxyphenylamino)isoquinolin-6-yl)-1H-pyrazol-1-yl)-2-methylpropan-2-ol]"
5,3,"COc1cc(-c2nnc3n2CCN(C(=O)OC(C)(C)C)C3)ccc1Nc1cc2cc(-c3cnn(CC(C)(C)O)c3)ccc2cn1 [Example 55, tert-Butyl 3-(4-(6-(1-(2-hydroxy-2-methylpropyl)-1H-pyrazol-4-yl)isoquinolin-3-ylamino)-3-methoxyphenyl)-5,6-dihydro-[1,2,4]triazolo[4,3-a]pyrazine-7(8H)-carboxylate]"
6,3,"COc1nc(-c2cnc(C)n2C)ccc1Nc1cc2cc(-c3cnn(CC(C)(C)O)c3)ccc2cn1 [Example 56, 1-(4-(3-(6-(1,2-Dimethyl-1H-imidazol-5-yl)-2-methoxypyridin-3-ylamino)isoquinolin-6-yl)-1H-pyrazol-1-yl)-2-methylpropan-2-ol]"
7,3,"COc1cc(-c2cnc(C)n2C)cnc1Nc1cc2cc(-c3cnn(CC(C)(C)O)c3)ccc2cn1 [Example 57, 1-(4-(3-((5-(1,2-Dimethyl-1H-imidazol-5-yl)-3-methoxypyridin-2-yl)amino)isoquinolin-6-yl)-1H-pyrazol-1-yl)-2-methylpropan-2-ol]"
8,5,"CC(C)(O)Cn1cc(-c2ccc3cnc(Nc4ccc(-c5cncnc5)cc4Cl)cc3c2)cn1 [Example 58, 1-(4-(3-((2-Chloro-4-(pyrimidin-5-yl)phenyl)amino)isoquinolin-6-yl)-1H-pyrazol-1-yl)-2-methylpropan-2-ol]"
9,4,"CC(C)(O)Cn1cc(-c2ccc3cnc(Nc4ccc(S(C)(=O)=O)cc4Cl)cc3c2)cn1 [Example 59, 1-(4-(3-((2-Chloro-4-(methylsulfonyl)phenyl)amino)isoquinolin-6-yl)-1H-pyrazol-1-yl)-2-methylpropan-2-ol]"
10,2,"COc1cc(C(=O)N(C)C)ccc1Nc1cc2cc(-c3cnn(CC(C)(C)O)c3)ccc2cn1 [Example 60, 4-((6-(1-(2-Hydroxy-2-methylpropyl)-1H-pyrazol-4-yl)isoquinolin-3-yl)amino)-3-methoxy-N,N-dimethylbenzamide]"
11,2,"COc1cc(C(=O)NCCO)ccc1Nc1cc2cc(-c3cnn(CC(C)(C)O)c3)ccc2cn1 [Example 61, 4-((6-(1-(2-Hydroxy-2-methylpropyl)-1H-pyrazol-4-yl)isoquinolin-3-yl)amino)-N-(2-hydroxyethyl)-3-methoxybenzamide]"
12,3,"COCCNC(=O)c1ccc(Nc2cc3cc(-c4cnn(CC(C)(C)O)c4)ccc3cn2)c(OC)c1 [Example 62, 4-((6-(1-(2-Hydroxy-2-methylpropyl)-1H-pyrazol-4-yl)isoquinolin-3-yl)amino)-3-methoxy-N-(2-methoxyethyl)benzamide]"
13,1,"COCc1ncc(-c2ccc(Nc3cc4cc(-c5cnn(CC(C)(C)O)c5)ccc4cn3)c(OC)c2)n1C [Example 63, 1-(4-(3-((2-Methoxy-4-(2-(methoxymethyl)-1-methyl-1H-imidazol-5-yl)phenyl)amino)-isoquinolin-6-yl)-1H-pyrazol-1-yl)-2-methylpropan-2-ol]"
